From patent US20260085062A1, “NOVEL COMPOUNDS AS CK2 INHIBITORS” (Cambridge Enterprise Limited, priority 2022, published 2026)

Columns and labels:
CK2α = biological target: T1, CK2α (Homo sapiens, UniProt P68400); test: Biochemical assay for inhibitors of CK2α kinase activity (ADP-Glo); details: 0.2 nM CK2α, 50 μM peptide substrate, 15 μM ATP, read-out: Assay 1: CK2α Enzyme IC50
T1 construct: CK2α (residues 2-329) was produced in Escherichia coli BL21 (DE3) for kinase activity screening; His6 (N, cleaved yes); made in house; host or cells: Escherichia coli BL21 (DE3)
T1 sequence (P68400 2-329): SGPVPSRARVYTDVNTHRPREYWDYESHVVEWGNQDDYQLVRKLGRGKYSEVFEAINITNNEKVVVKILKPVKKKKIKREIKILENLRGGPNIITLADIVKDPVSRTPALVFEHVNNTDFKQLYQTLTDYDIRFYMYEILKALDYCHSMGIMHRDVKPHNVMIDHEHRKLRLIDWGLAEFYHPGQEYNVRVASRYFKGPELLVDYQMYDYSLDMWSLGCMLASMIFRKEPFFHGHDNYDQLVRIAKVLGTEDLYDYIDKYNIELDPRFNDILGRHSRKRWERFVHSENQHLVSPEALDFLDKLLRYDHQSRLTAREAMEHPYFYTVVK

CLK2 = biological target: T2, CLK2 (Homo sapiens, UniProt P49760); test: Biochemical assay for inhibitors of CLK2 kinase activity (ADP-Glo); details: 20 nM CLK2, 50 μM peptide substrate, 100 μM ATP, read-out: Assay 2: CLK2 Enzyme IC50
T2 construct: purchased Carna Biosciences 04-127
T2 sequence (P49760 whole entry): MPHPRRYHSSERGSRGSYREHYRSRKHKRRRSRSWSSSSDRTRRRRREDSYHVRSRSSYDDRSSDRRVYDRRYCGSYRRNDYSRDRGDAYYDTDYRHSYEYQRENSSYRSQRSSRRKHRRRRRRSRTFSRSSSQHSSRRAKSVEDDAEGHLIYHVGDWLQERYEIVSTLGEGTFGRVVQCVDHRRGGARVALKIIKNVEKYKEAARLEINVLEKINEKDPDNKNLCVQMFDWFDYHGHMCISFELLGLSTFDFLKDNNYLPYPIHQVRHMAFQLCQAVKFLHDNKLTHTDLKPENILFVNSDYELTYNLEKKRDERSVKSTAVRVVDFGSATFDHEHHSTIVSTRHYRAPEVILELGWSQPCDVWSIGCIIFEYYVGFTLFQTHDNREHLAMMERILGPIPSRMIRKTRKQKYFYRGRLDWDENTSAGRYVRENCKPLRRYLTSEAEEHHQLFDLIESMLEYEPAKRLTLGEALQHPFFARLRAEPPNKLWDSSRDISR

intracellular CK2α = biological target: T3, intracellular CK2α (Homo sapiens, UniProt P19784); test: Cell-based NanoBRET assay for inhibitor binding to intracellular CK2α; details: HCT116 cells transiently transfected with CSNK2A2-NanoLuc fusion vector; Tracer K-5; 2 h; read-out: Assay 3: NanoBRET ™ assay for binding to intracellular CK2α
T3 construct: host or cells: HCT116 (ATCC CCL-247)
T3 sequence (P19784 whole entry, the tested form may be a part): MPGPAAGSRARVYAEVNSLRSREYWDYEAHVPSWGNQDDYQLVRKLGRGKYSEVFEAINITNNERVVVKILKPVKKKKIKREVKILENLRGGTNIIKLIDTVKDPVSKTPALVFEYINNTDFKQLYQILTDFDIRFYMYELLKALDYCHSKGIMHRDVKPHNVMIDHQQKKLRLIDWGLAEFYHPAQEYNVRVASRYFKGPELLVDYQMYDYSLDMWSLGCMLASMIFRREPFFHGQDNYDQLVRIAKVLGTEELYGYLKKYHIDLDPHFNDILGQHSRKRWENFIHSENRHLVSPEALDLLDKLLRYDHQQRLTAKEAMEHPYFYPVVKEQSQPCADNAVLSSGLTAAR
In short: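 Living cells expressing NanoLuc-CK2α fusion were given a fixed tracer concentration, and compounds competitively displaced the reversibly bound tracer. Donor (450 nm) and acceptor (610 or 630 nm) emissions were read; BRET ratio = (acceptor/donor)×1,000, giving apparent intracellular affinity.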

SMILES	IC50 (CK2α)	IC50 (CLK2)	IC50 (intracellular CK2α)
FC(F)(F)Oc1ccc(CNCCCCOCCOc2cc(-n3cnnc3)cc3[nH]nnc23)cc1Cl [Example 123, 4-(2-((6-(4H-1,2,4-triazol-4-yl)-1H-benzo[d][1,2,3]triazol-4-yl)oxy)ethoxy)-N-(3-chloro-4-(trifluoromethoxy)benzyl)butan-1-amine]	0.306 µM	44.7 µM	> 50 µM
c1cc2[nH]c(CNCCCCOC3CN(c4cc(-n5cnnc5)cc5[nH]ncc45)C3)cc2cc1OC1CCC1 [Example 124, 4-((1-(6-(4H-1,2,4-triazol-4-yl)-1H-indazol-4-yl)azetidin-3-yl)oxy)-N-((5-cyclobutoxy-1H-indol-2-yl)methyl)butan-1-amine]	0.00744 µM	0.134 µM	1.99 µM
OCc1cc(F)cc(CNCCCCOC2CN(c3cc(-n4cnnc4)cc4[nH]ncc34)C2)c1 [Example 125, (3-(((4-((1-(6-(4H-1,2,4-triazol-4-yl)-1H-indazol-4-yl)azetidin-3-yl)oxy)butyl)amino)methyl)-5-fluorophenyl)methanol]	0.162 µM	0.152 µM	49.2 µM
FC(F)(F)Oc1ccc(CNCCCCOCCNc2cc(-n3cnnc3)cc3[nH]nnc23)cc1Cl [Example 126, N-(2-(4-((3-chloro-4-(trifluoromethoxy)benzyl)amino)butoxy)ethyl)-6-(4H-1,2,4-triazol-4-yl)-1H-benzo[d][1,2,3]triazol-4-amine]	0.0111 µM	18.1 µM	3.63 µM
FC(F)(F)c1ccc2[nH]c(CNCCCCOC3CN(c4cc(-n5cnnc5)cc5[nH]ncc45)C3)cc2c1 [Example 128, 4-((1-(6-(4H-1,2,4-triazol-4-yl)-1H-indazol-4-yl)azetidin-3-yl)oxy)-N-((5-(trifluoromethyl)-1H-indol-2-yl)methyl)butan-1-amine]	0.00396 µM	0.187 µM	> 50 µM
Fc1cc(CNCCCCOC2CN(c3cc(-n4cnnc4)cc4[nH]ncc34)C2)ccc1OC(F)(F)F [Example 129, 4-((6-(6-(4H-1,2,4-triazol-4-yl)-1H-indazol-4-yl)azetidine-3-yl)oxy)-N-(3-fluoro-4-(trifluoromethoxy)benzyl)butan-1-amine]	0.0235 µM	0.494 µM	> 50 µM
OCc1cc(Cl)cc(CNCCCCOC2CN(c3cc(-n4cnnc4)cc4[nH]ncc34)C2)c1 [Example 130, (3-(((4-((1-(6-(4H-1,2,4-triazol-4-yl)-1H-indazol-4-yl)azetidin-3-yl)oxy)butyl)amino)methyl)-5-chlorophenyl)methanol]	0.106 µM	0.326 µM	15.4 µM
N#CCc1cc(Cl)cc(CNCCCCOC2CN(c3cc(-n4cnnc4)cc4[nH]ncc34)C2)c1 [Example 131, 2-(3-(((4-((1-(6-(4H-1,2,4-triazol-4-yl)-1H-indazol-4-yl)azetidin-3-yl)oxy)butyl)amino)methyl)-5-chlorophenyl)acetonitrile]	0.0281 µM	0.146 µM	3 µM
FC(F)(F)Oc1ccc(CNCCCCOC2CN(c3cc(-n4cnnc4)cc4[nH]ncc34)C2)cc1Cl [Example 132, 4-((1-(6-(4H-1,2,4-triazol-4-yl)-1H-indazol-4-yl)azetidin-3-yl)oxy)-N-(3-chloro-4-(trifluoromethoxy)benzyl)butan-1-amine]	0.0109 µM	0.442 µM	0.869 µM
N#CCc1cc(Cl)cc(CNCCCCOC2CN(c3cc(-c4ccnnc4)cc4[nH]ncc34)C2)c1 [Example 133, 2-(3-chloro-5-(((4-((1-(6-(pyridazin-4-yl)-1H-indazol-4-yl)azetidin-3-yl)oxy)butyl)amino)methyl)phenyl)acetonitrile]	0.0315 µM	2.04 µM	3.07 µM
N#CCc1cc(CNCCCCOC2CN(c3cc(-c4ccnnc4)cc4[nH]ncc34)C2)cc(OC(F)(F)F)c1 [Example 134, 2-(3-(((4-((1-(6-(pyridazin-4-yl)-1H-indazol-4-yl)azetidin-3-yl)oxy)butyl)amino)methyl)-5-(trifluoromethoxy)phenyl)acetonitrile]	0.00525 µM	2.68 µM	0.809 µM
Fc1cc(CNCCCCOC2CN(c3cc(-c4cnoc4)cc4[nH]ncc34)C2)ccc1OC(F)(F)F [Example 135, N-(3-fluoro-4-(trifluoromethoxy)benzyl)-4-((1-(6-(isoxazol-4-yl)-1H-indazol-4-yl)azetidin-3-yl)oxy)butan-1-amine]	0.0133 µM	0.23 µM	1.83 µM
OCc1cc(Cl)cc(CNCCCCOC2CN(c3cc(-c4cnoc4)cc4[nH]ncc34)C2)c1 [Example 136, (3-chloro-5-(((4-((1-(6-(isoxazol-4-yl)-1H-indazol-4-yl)azetidin-3-yl)oxy)butyl)amino)methyl)phenyl)methanol]	0.0331 µM	0.124 µM	3.35 µM
FC(F)(F)Oc1ccc(CNCCCCOC2CN(c3cc(-c4cnoc4)cc4[nH]ncc34)C2)cc1Cl [Example 137, N-(3-chloro-4-(trifluoromethoxy)benzyl)-4-((1-(6-(isoxazol-4-yl)-1H-indazol-4-yl)azetidin-3-yl)oxy)butan-1-amine]	0.013 µM	0.333 µM	2.87 µM
OCc1cc(F)cc(CNCCCCOC2CN(c3cc(-c4cnoc4)cc4[nH]ncc34)C2)c1 [Example 138, (3-fluoro-5-(((4-((1-(6-(isoxazol-4-yl)-1H-indazol-4-yl)azetidin-3-yl)oxy)butyl)amino)methyl)phenyl)methanol]	0.0337 µM	0.115 µM	5.92 µM
FC(F)(F)c1ccc2[nH]c(CNCCCCOC3CN(c4cc(-c5cnoc5)cc5[nH]ncc45)C3)cc2c1 [Example 139, 4-((1-(6-(isoxazol-4-yl)-1H-indazol-4-yl)azetidin-3-yl)oxy)-N-((5-(trifluoromethyl)-1H-indol-2-yl)methyl)butan-1-amine]	0.0109 µM	0.498 µM	2.36 µM
FC(F)(F)c1ccc2[nH]c(CNCCCCOC3CN(c4cc(-c5ccnnc5)cc5[nH]ncc45)C3)cc2c1 [Example 140, 4-((1-(6-(pyridazin-4-yl)-1H-indazol-4-yl)azetidin-3-yl)oxy)-N-((5-(trifluoromethyl)-1H-indol-2-yl)methyl)butan-1-amine]	0.0102 µM	2.03 µM	2.8 µM
N#CCc1cc(CNCCCCOCCNc2cc(-n3cnnc3)cc3[nH]nnc23)cc(OC(F)(F)F)c1 [Example 141, 2-(3-(((4-(2-((6-(4H-1,2,4-triazol-4-yl)-1H-benzo[d][1,2,3]triazol-4-yl)amino)ethoxy)butyl)amino)methyl)-5-(trifluoromethoxy)phenyl)acetonitrile]	0.00277 µM	17.8 µM	2.06 µM
FC(F)(F)c1ccc2[nH]c(CNCCCCOCCNc3cc(-n4cnnc4)cc4[nH]nnc34)cc2c1 [Example 142, 6-(4H-1,2,4-triazol-4-yl)-N-(2-(4-(((5-(trifluoromethyl)-1H-indol-2-yl)methyl)amino)butoxy)ethyl)-1H-benzo[d][1,2,3]triazol-4-amine]	0.00543 µM	4.79 µM	3.86 µM
FC(F)(F)c1ccc2[nH]c(CNCCCCOCCNc3cc(-c4cnoc4)cc4[nH]nnc34)cc2c1 [Example 143, 6-(isoxazol-4-yl)-N-(2-(4-(((5-(trifluoromethyl)-1H-indol-2-yl)methyl)amino)butoxy)ethyl)-1H-benzo[d][1,2,3]triazol-4-amine]	0.00701 µM	0.625 µM	0.564 µM
